Measurements from US6605598B1, “Chemically synthesized sugar esters for the control of soft-bodied arthropods” (The United States of America as represented by the …, priority 1994, dated 2003).

Columns and labels:
[1] = tested on: tobacco aphid, Myrzus Nicotiana Blackman; experiment: Spray bioassay against tobacco aphids; assay type: in vivo; details: individual SE groups; 1 mg SE/ml aqueous spray solution; after 24 hours; average of number of tests
Procedure: (§1) Bioassays of the total SE reaction products as well as of the individual groups of SE were conducted using the tobacco aphid, Myrzus Nicotiana Blackman, the greenhouse whitefly, Trialeurodes vaporariorum Westwood, and the sweetpotato whitefly, Bemisia tabaci Gennadius. Aqueous dispersions of sugar ester fractions, obtained from the column chromatographic step or the total reaction SE products were tested generally at a concentration of 1 mg/ml of water. To prepare the sprayable aqueous mixtures, a small amount of methanol (approximately about 20 μl per 10 mg of dried test compound) is added to the dried test compound. This is agitated gently. Then acetone is added to the methanol mixture to yield a concentration of approximately about 0.05 g/ml. This is shaken gently. To obtain a final, sprayable concentration of approximately about 1 mg sucrose ester/ml, about 10 ml of water are added to the mixture. This is then placed into an ultrasonic bath for 20 minutes. The resulting solution is ready to spray. Green-house reared apterous (wingless) aphids, that colonized a green tobacco plant, were removed with a leaf, sprayed, and kept in a closed petri dish. Percent mortality was determined after 24 hours. In a similar manner, bioassays against the green house whitefly or sweetpotato whitefly are conducted by spraying sucrose ester dispersions at 1 mg/ml of water onto whiteflies, trapped on a sticky surface, and determining percent mortality after 2-24 hours. Tables II and III below show the percent mortality of aphids treated by the individual sucrose ester groups and the total SE reaction products.

[2] = tested on: greenhouse whitefly, Trialeurodes vaporariorum Westwood; experiment: Spray bioassay against the greenhouse whitefly; assay type: in vivo; details: group 2 SE, 1.0 mg/ml spray solution, after 24 hours, average of number of tests
Procedure: as §1

Compound	% Mortality [1] [%]	% Mortality [2] [%]	mortality at 1000 µg/mL ([2]; Trialeurodes vaporariorum) [%]
monoheptanoyl sucrose	17	–	–
monooctanoyl sucrose	11	–	–
didodecanoyl sucrose	23	100	–
monodecanoyl sucrose	47	–	–
diheptanoyl sucrose	88	100	–
monododecanoyl sucrose	47	–	–
triheptanoyl sucrose	16	–	–
monononanoyl sucrose	16	–	–
tridnanoyl sucrose	13	–	–
dinonanoyl sucrose	64	87	–
tridodecanoyl sucrose	15	–	–
tridecanoyl sucrose	15	–	–
CCCCCCCC(=O)OCC1OC(OC2(COC(=O)CCCCCCC)OC(COC(=O)CCCCCCC)C(O)C2O)C(O)C(O)C1O (single isomer, unassigned) [trioctanoyl sucrose]	27	–	–
CCCCCCCC(=O)OCC1OC(OC2(CO)OC(COC(=O)CCCCCCC)C(O)C2O)C(O)C(O)C1O (single isomer, unassigned) [dioctanoyl sucrose]	88	–	100
dihexanoyl sucrose	–	77	–
didecanoyl sucrose	43	100	–
